In patent publication US20040231558A1, “Water-color ink” (priority 2001, published 2004):

Experiments:
Format in all cases: physicochemical
[1] = Evaluation of storage stability of ink (40° C. for 3 months, insoluble matter and clogging); conditions: recording liquid stored at 40° C. for 3 months; insoluble matter and clogging
Method: (§1) The prepared ink was filled in an ink cartridge for a piezo-type ink-jet printer EM-930C (manufactured by Seiko Epson). The printing was performed with this printer, and the light fastness was evaluated. Further, the storage stability of the ink was evaluated.
(C) Evaluation of Storage Stability of Ink:
After a recording liquid was stored at 40° C. for 3 months, it was observedwhether or not an insoluble matterwas precipitated, and whether or not clogging occurred after continuous recording with the foregoing printer for a long period of time.

[2] = Evaluation of light fastness-2 (OD value of printed portion after 400 hours xenon fadeometer); conditions: ink prepared as in Example 1 from the salt named in the row; OD value of printed portion after 400 hours xenon fadeometer
Method: as §1
(A)-2 Evaluation of Light Fastness-2
Printing density (OD value) was measured after irradiating a printed-portion with light for 400 hours using axenon fadeometer (manufactured by Suga Shikenki), and the light fastness was evaluated.

[3] = Evaluation of moisture resistance (image-recorded paper at 40° C. and humidity 85%, visual observation); conditions: image-recorded paper at 40° C. and humidity 85%, visually observed
[4] = Evaluation of light fastness-1 (OD value of printed portion after 100 hours xenon fadeometer); conditions: ink prepared as in Example 1 from the salt named in the row; OD value of printed portion after 100 hours xenon fadeometer
Method: as §1
(A)-1 Evaluation of Light Fastness-1
Printing density (OD value) was measured after irradiating a printed portion with light for 100 hours using a xenon fadeometer (manufactured by Suga Shikenki) to evaluate the light fastness.

Row | (C) storage stability [1] | (A)-2 light fastness-2 [2] | (B) moisture resistance [3] | (A)-1 light fastness-1 [4] | Structure (SMILES)
1 | Δ | ⊚ | ⊚ | ⊚ | Cc1c(N=Nc2cc(C(=O)O)ccc2C(=O)O)c(O)n(CCCCCCNC(=O)c2cc(C(=O)NCCCCCCn3c(O)c(N=Nc4cc(C(=O)O)ccc4C(=O)O)c(C)c(C#N)c3=O)c(C(=O)NCCn3c(O)c(N=Nc4cc(C(=O)O)ccc4C(=O)O)c(C)c(C#N)c3=O)cc2C(=O)NCCCCCCn2c(O)c(N=Nc3cc(C(=O)O)ccc3C(=O)O)c(C)c(C#N)c2=O)c(=O)c1C#N [Compound 312]
2 | Δ | ◯ | ⊚ | ⊚ | Cc1c(N=Nc2cc(C(=O)O)ccc2C(=O)O)c(O)n(CCNc2nc(NCCn3c(O)c(N=Nc4cc(C(=O)O)ccc4C(=O)O)c(C)c(C#N)c3=O)nc(SCCC(=O)O)n2)c(=O)c1C#N [Compound 321]
3 | Δ | ⊚ | ⊚ | ⊚ | Cc1c(N=Nc2ccccc2C(=O)O)c(O)n(CCNC(=O)c2cc(C(=O)O)c(C(=O)NCCn3c(O)c(N=Nc4ccccc4C(=O)O)c(C)c(C#N)c3=O)cc2C(=O)O)c(=O)c1C#N [Compound 323]
4 | ◯ | ⊚⊚ | ⊚ | ⊚ | CCc1c(N=Nc2cc(C(=O)O)ccc2C(=O)O)c(O)n(CCn2c(=O)c3cc4c(=O)n(CCn5c(O)c(N=Nc6cc(C(=O)O)ccc6C(=O)O)c(CC)c(C#N)c5=O)c(=O)c4cc3c2=O)c(=O)c1C#N [Compound 335]
5 | ◯ | ⊚⊚ | ⊚ | ⊚ | CC(C)(C)c1c(N=Nc2cc(C(=O)O)ccc2C(=O)O)c(O)n(CCn2c(=O)c3cc4c(=O)n(CCn5c(O)c(N=Nc6cc(C(=O)O)ccc6C(=O)O)c(C(C)(C)C)c(C#N)c5=O)c(=O)c4cc3c2=O)c(=O)c1C#N [Compound 336]
6 | ◯ | ⊚ | ⊚ | ⊚ | Cc1c(N=Nc2cc(C(=O)O)ccc2C(=O)O)c(O)n(CCn2c(=O)c3cc4c(=O)n(CCn5c(O)c(N=Nc6cc(C(=O)O)ccc6C(=O)O)c(C)c(C#N)c5=O)c(=O)c4cc3c2=O)c(=O)c1C#N [Compound 342]
7 | ◯ | ⊚ | ⊚ | ⊚ | Cc1c(N=Nc2cc(C(=O)O)ccc2C(=O)O)c(O)n(CCNC(=O)c2cc(C(=O)O)c(C(=O)NCCn3c(O)c(N=Nc4cc(C(=O)O)ccc4C(=O)O)c(C)c(C#N)c3=O)cc2C(=O)O)c(=O)c1C#N [Compound No. 279]
8 | ◯ and Δ | ⊚ and Δ | ◯ | ⊚ | Cc1c(N=Nc2cc(C(=O)O)ccc2C(=O)O)c(O)n(CCO)c(=O)c1C#N [compound 37]
9 | ◯ and Δ | ⊚ and Δ | Δ and ◯ | ⊚ | Cc1c(N=Nc2cccc(C(=O)O)c2C(=O)O)c(O)n(C(C(=O)O)C(=O)O)c(=O)c1C#N [compound 52]

Row | Structure (SMILES) | (C) storage stability [1] | (A)-2 light fastness-2 [2] | (B) moisture resistance [3] | (A)-1 light fastness-1 [4]
10 | Cc1c(N=Nc2cc(C(=O)O)ccc2C(=O)O)c(O)n(CCNc2nc(Cl)nc(NCCn3c(O)c(N=Nc4cc(C(=O)O)ccc4C(=O)O)c(C)c(C#N)c3=O)n2)c(=O)c1C#N [Compound No. 245] | ◯ | ◯ | ⊚ | ⊚
11 | Cc1c(N=Nc2cc(C(=O)O)ccc2C(=O)O)c(O)n(CCCCCCNc2nc(Cl)nc(NCCCCCCn3c(O)c(N=Nc4cc(C(=O)O)ccc4C(=O)O)c(C)c(C#N)c3=O)n2)c(=O)c1C#N [Compound No. 246] | Δ | Δ | ⊚ | ⊚
12 | Cc1c(N=Nc2cccc(C(=O)O)c2C(=O)O)c(O)n(CC(O)C(O)C(O)C(O)C(O)CO)c(=O)c1C#N (stereo not drawn) [compound 29] | ◯ and Δ | ◯ and Δ | ◯ | ⊚
